According to PMC10101059, “Rational Design of Stapled Antimicrobial Peptides to Enhance Stability and In Vivo Potency against Polymicrobial Sepsis” (Microbiology Spectrum, 2023):
≈ marks a conversion by molar mass, not a printed value. Where two headings read alike, the source gives them in different places. Peptide text beside a SMILES is read from it.

Assays:
human red blood cells = type: cell-based
Method: The hemolytic assay was performed after approval from the institutional ethics committee (Academia Sinica Institutional Review Board [IRB]; ID no. AS-IRB02-111075). Blood was collected from healthy humans, and 50 μL of a 2% blood cell suspension in normal saline was treated with an equal volume of peptide at different concentrations. The mixture was then incubated at 37 ± 2°C for 1 h. Next, the cell suspension was centrifuged at 1,000 × g for 10 min. Percent hemolysis was estimated by the absorbance of treated and control supernatant samples at 540 nm ([23], [44]).

[1] = system: human keratinocyte (HaCaT); assay: alamarBlue cytotoxicity assay; type: cell-based; conditions: at 0.78 μM, 24 h
Method: (§1) (i) Cell culture. Human skin keratinocytes (HaCaT), human kidney (HK-2), and RAW 264.7 macrophage cells were obtained from the Bioresource Collection and Research Center (BCRC, Hsinchu, Taiwan). HaCaT and […] macrophage cells were cultured in Dulbecco’s modified Eagle’s medium (DMEM, Thermo Fischer, MA, USA.) supplemented with 10% FBS, penicillin (100 U/mL), and streptomycin (100 μg/mL) at 37°C under 5% CO2. HK-2 cells were cultured in glucose-free Keratinocyte serum-free medium (K-SFM) supplemented with 0.05 mg/mL bovine pituitary extract (BPE), 5 ng/mL EGF, 100 U/mL penicillin, and […] streptomycin at 37°C in 5% CO2 ([49]).
(§2) In vitro toxicity assay. The cytotoxicity of TP4-3 was evaluated by an alamarBlue assay. HaCaT, HK-2, and RAW 264.7 macrophage cells were seeded at densities of 1 × 10^4 cells/well in 96-well cell plates and treated with the indicated concentrations of TP4 and TP4-3 for 24 h (0.78 to 100 μM). Cells treated with 0.1% Triton X-100 and culture medium served as negative and positive-control groups, respectively. After incubation, the cells were washed and incubated for 2 h at 37°C with 90 μL Dulbecco’s modified Eagle medium (DMEM) containing 10 μL alamarBlue reagent. Fluorescence was recorded using a Spectra Max i3 Multi-Mode detection platform (Molecular Devices, San Jose, CA) to measure cell viability ([50], [51]).

human kidney cell (HK-2) = assay: alamarBlue cytotoxicity assay; type: cell-based; conditions: at 1.56 μM, 24 h
Method: as §1, §2

[2] = system: murine macrophage (RAW 264.7); assay: alamarBlue cytotoxicity assay; type: cell-based; conditions: at 1.56 μM, 24 h
Method: as §1, §2

Enterobacter aerogenes = assay: microbe, parasite or virus in culture; type: cell-based; conditions: MHB medium
Method: (§3) The antimicrobial assay was performed according to a modified National Committee for Clinical Laboratory Standards (NCCLS) protocol ([41], [42]). Briefly, 5 × 10^5 CFU/mL bacterial cells were treated with various peptide concentrations and incubated at 37 ± 2°C for 16 to 20 h. The lowest concentration with clear wells was recorded as the MIC for each test molecule. The clear wells were further plated in Mueller-Hinton agar (MHA) plates, followed by incubation overnight at 37 ± 2°C. After plating, the lowest concentration at which no growth was observed was recorded as the MBC. For the serum sensitivity assay, the antimicrobial activity of the peptides was tested in medium containing 50% human serum ([43], [44]).

Escherichia coli = assay: microbe, parasite or virus in culture; type: cell-based
Method: as §3

[3] = system: NDM-1 Klebsiella pneumoniae; assay: microbe, parasite or virus in culture; type: cell-based
Method: as §3

Pseudomonas aeruginosa = assay: microbe, parasite or virus in culture; type: cell-based
Method: as §3

Salmonella enterica = assay: microbe, parasite or virus in culture; type: cell-based; conditions: MHB medium
Method: as §3

MDR A. baumannii 1019 = assay: microbe, parasite or virus in culture; type: cell-based, Acinetobacter baumannii
Method: as §3

MDR A. baumannii 1033 = assay: microbe, parasite or virus in culture; type: cell-based, Acinetobacter baumannii; conditions: for MBC: read-out: MBC; for MIC: read-out: MIC
Method: as §3

MDR A. baumannii 14B0091 = assay: microbe, parasite or virus in culture; type: cell-based, Acinetobacter baumannii
Method: as §3

MDR A. baumannii 1607 = assay: microbe, parasite or virus in culture; type: cell-based, Acinetobacter baumannii
Method: as §3

MDR A. baumannii 1702 = assay: microbe, parasite or virus in culture; type: cell-based, Acinetobacter baumannii; conditions: for MBC: read-out: MBC; for MIC: read-out: MIC
Method: as §3

MDR A. baumannii 2088 = assay: microbe, parasite or virus in culture; type: cell-based, Acinetobacter baumannii
Method: as §3

MDR A. baumannii 2962 = assay: microbe, parasite or virus in culture; type: cell-based, Acinetobacter baumannii
Method: as §3

MDR A. baumannii 2982 = assay: microbe, parasite or virus in culture; type: cell-based, Acinetobacter baumannii
Method: as §3

MDR A. baumannii 2997 = assay: microbe, parasite or virus in culture; type: cell-based, Acinetobacter baumannii; conditions: for MBC: read-out: MBC; for MIC: read-out: MIC
Method: as §3

MDR A. baumannii 2998 = assay: microbe, parasite or virus in culture; type: cell-based, Acinetobacter baumannii
Method: as §3

MDR A. baumannii 3618 = assay: microbe, parasite or virus in culture; type: cell-based, Acinetobacter baumannii
Method: as §3

MDR A. baumannii 921 = assay: microbe, parasite or virus in culture; type: cell-based, Acinetobacter baumannii
Method: as §3

[4] = HS, 50% human serum containing MHB medium
[5] = HS, MH medium containing 50% human serum
[6] = HS, MH medium containing 50% human serum, read-out: MBC

For `CC[C@H](C)[C@H](NC(=O)[C@H](C)NC(=O)[C@H](CCCCN)NC(=O)CNC(=O)[C@H](C)NC(=O)[C@H](CO)NC(=O)[C@H](Cc1ccccc1)NC(=O)[C@H](CC(C)C)NC(=O)CNC(=O)CNC(=O)[C@@H](NC(=O)[C@@H](NC(=O)[C@H](Cc1cnc[nH]1)NC(=O)[C@H](Cc1cnc[nH]1)NC(=O)[C@@H](NC(=O)[C@@H](N)Cc1ccccc1)[C@@H](C)CC)[C@@H](C)CC)[C@@H](C)CC)C(=O)N[C@@H](Cc1cnc[nH]1)C(=O)N[C@@H](CCCNC(=N)N)C(=O)N[C@@H](CC(C)C)C(=O)N[C@H](C(=O)N[C@@H](CCCNC(=N)N)C(=O)N[C@@H](CCCNC(=N)N)C(=O)N[C@@H](CCCNC(=N)N)C(=O)N[C@@H](CCCNC(=N)N)C(=O)N[C@@H](CCCNC(=N)N)C(=O)O)[C@@H](C)CC` [TP4, tilapia piscidin 4] (H-FIHHIIGGLFSAGKAIHRLIRRRRR-OH), the 15% hemolysis concn (human red blood cells) was <3.13 µM, the cell death [1] was “substantial cell death” and the cell death (human kidney cell (HK-2)) was “substantial cell death”. For the same compound, the cell death [2] was “substantial cell death”.

`CC[C@H](C)[C@H](NC(=O)[C@H](CCCCN)NC(=O)[C@H](CCC(=O)O)NC(=O)[C@H](CCCCN)NC(=O)[C@H](CO)NC(=O)[C@H](CCCCN)NC(=O)[C@H](CCCNC(=N)N)NC(=O)[C@H](Cc1ccccc1)NC(=O)[C@H](Cc1ccccc1)NC(=O)[C@H](CC(=O)O)NC(=O)CNC(=O)[C@H](CC(C)C)NC(=O)[C@@H](N)CC(C)C)C(=O)NCC(=O)N[C@@H](CCCCN)C(=O)N[C@@H](CCC(=O)O)C(=O)N[C@@H](Cc1ccccc1)C(=O)N[C@@H](CCCCN)C(=O)N[C@@H](CCCNC(=N)N)C(=O)N[C@H](C(=O)N[C@H](C(=O)N[C@@H](CCC(N)=O)C(=O)N[C@@H](CCCNC(=N)N)C(=O)N[C@H](C(=O)N[C@@H](CCCCN)C(=O)N[C@@H](CC(=O)O)C(=O)N[C@@H](Cc1ccccc1)C(=O)N[C@@H](CC(C)C)C(=O)N[C@@H](CCCNC(=N)N)C(=O)N[C@@H](CC(N)=O)C(=O)N[C@@H](CC(C)C)C(=O)N[C@H](C(=O)N1CCC[C@H]1C(=O)N[C@@H](CCCNC(=N)N)C(=O)N[C@H](C(=O)N[C@@H](CCC(=O)O)C(=O)N[C@@H](CO)C(=O)O)[C@@H](C)O)C(C)C)[C@@H](C)CC)C(C)C)[C@@H](C)CC` [LL-37] was tested, and the MBC (Enterobacter aerogenes) was 6.25 µM (≈ 28.1 µg/mL), the MIC (Enterobacter aerogenes) was 6.25 µM (≈ 28.1 µg/mL) and the MBC (Escherichia coli; [4]) was >25 µM. For the same compound, the MIC (Escherichia coli; [4]) was >25 µM, the MBC (Escherichia coli; MHB medium) was 6.25 µM (≈ 28.1 µg/mL) and the MIC (Escherichia coli; MHB medium) was 6.25 µM (≈ 28.1 µg/mL). For the same compound, the MBC [3, 4] was >25 µM, the MIC [3, 4] was >25 µM and the MBC ([3]; MHB medium) was 25 µM (≈ 112 µg/mL). The MIC ([3]; MHB medium) was 25 µM (≈ 112 µg/mL), the MBC (Pseudomonas aeruginosa; HS, 50% human serum containing MHB medium, read-out: MBC) was >25 µM and the MIC (Pseudomonas aeruginosa; HS, 50% human serum containing MHB medium, read-out: MIC) was >25 µM. The MBC (Pseudomonas aeruginosa; MHB medium) was 6.25−12.5 μM, the MIC (Pseudomonas aeruginosa; MHB medium) was 6.25−12.5 μM and the MBC (Salmonella enterica) was >25 µM. The MIC (Salmonella enterica) was >25 µM, the MBC (MDR A. baumannii 1019; [5]) was >25 µM and the MIC (MDR A. baumannii 1019; [5]) was >25 µM. For the same compound, the MBC (MDR A. baumannii 1019; MHB medium) was 6.25 µM (≈ 28.1 µg/mL), the MIC (MDR A. baumannii 1019; MHB medium) was 6.25 µM (≈ 28.1 µg/mL) and the MBC (MDR A. baumannii 1033; [5]) was >25 µM. The MIC (MDR A. baumannii 1033; [5]) was >25 µM, the MBC (MDR A. baumannii 1033; MHB medium) was 6.25 µM (≈ 28.1 µg/mL) and the MIC (MDR A. baumannii 1033; MHB medium) was 6.25 µM (≈ 28.1 µg/mL). The MBC (MDR A. baumannii 14B0091; [5]) was >25 µM, the MIC (MDR A. baumannii 14B0091; [5]) was >25 µM and the MBC (MDR A. baumannii 14B0091; MHB medium) was 3.13 µM (≈ 14.1 µg/mL). For the same compound, the MIC (MDR A. baumannii 14B0091; MHB medium) was 3.13 µM (≈ 14.1 µg/mL), the MIC (MDR A. baumannii 1607; [5]) was >25 µM and the MBC (MDR A. baumannii 1607; [6]) was >25 µM. For the same compound, the MBC (MDR A. baumannii 1607; MHB medium) was 3.13 to 6.25 µM, the MIC (MDR A. baumannii 1607; MHB medium) was 3.13 µM (≈ 14.1 µg/mL) and the MBC (MDR A. baumannii 1702; [5]) was >25 µM. For the same compound, the MIC (MDR A. baumannii 1702; [5]) was >25 µM, the MBC (MDR A. baumannii 1702; MHB medium) was 3.13 µM (≈ 14.1 µg/mL) and the MIC (MDR A. baumannii 1702; MHB medium) was 3.13 µM (≈ 14.1 µg/mL). For the same compound, the MBC (MDR A. baumannii 2088; [6]) was >25 µM, the MIC (MDR A. baumannii 2088; HS, MH medium containing 50% human serum, read-out: MIC) was >25 µM and the MBC (MDR A. baumannii 2088; MHB medium) was 3.13 to 6.25 µM. For the same compound, the MIC (MDR A. baumannii 2088; MHB medium) was 3.13 to 6.25 µM, the MBC (MDR A. baumannii 2962; [5]) was >25 µM and the MIC (MDR A. baumannii 2962; [5]) was >25 µM. For the same compound, the MBC (MDR A. baumannii 2962; MHB medium) was 6.25 µM (≈ 28.1 µg/mL), the MIC (MDR A. baumannii 2962; MHB medium) was 6.25 µM (≈ 28.1 µg/mL) and the MBC (MDR A. baumannii 2982; [5]) was >25 µM. For the same compound, the MIC (MDR A. baumannii 2982; [5]) was >25 µM, the MBC (MDR A. baumannii 2982; MHB medium) was 12.5 µM (≈ 56.2 µg/mL) and the MIC (MDR A. baumannii 2982; MHB medium) was 6.25 µM (≈ 28.1 µg/mL). The MBC (MDR A. baumannii 2997; [5]) was >25 µM, the MIC (MDR A. baumannii 2997; [5]) was >25 µM and the MBC (MDR A. baumannii 2997; MHB medium) was 1.56 µM (≈ 7.01 µg/mL). For the same compound, the MIC (MDR A. baumannii 2997; MHB medium) was 1.56 µM (≈ 7.01 µg/mL), the MIC (MDR A. baumannii 2998; [5]) was >25 µM and the MBC (MDR A. baumannii 2998; [6]) was >25 µM. For the same compound, the MBC (MDR A. baumannii 2998; MHB medium) was 6.25 to 12.5 µM, the MIC (MDR A. baumannii 2998; MHB medium) was 6.25 µM (≈ 28.1 µg/mL) and the MBC (MDR A. baumannii 3618; [5]) was >25 µM. The MIC (MDR A. baumannii 3618; [5]) was >25 µM, the MBC (MDR A. baumannii 3618; MHB medium) was 3.13 µM (≈ 14.1 µg/mL) and the MIC (MDR A. baumannii 3618; MHB medium) was 3.13 µM (≈ 14.1 µg/mL). The MBC (MDR A. baumannii 921; [5]) was >25 µM, the MIC (MDR A. baumannii 921; [5]) was >25 µM and the MBC (MDR A. baumannii 921; MHB medium) was 6.25 µM (≈ 28.1 µg/mL). It also gave an MIC (MDR A. baumannii 921; MHB medium) of 6.25 µM (≈ 28.1 µg/mL).
